Values after ≈ are worked out from the molar mass of the structure shown.
Key:
Assay in all cases: MIC by micro broth dilution
Format in all cases: cell-based
S. aureus ATCC 43300 = conditions: S. aureus ATCC 43300; for MIC: Staphylococcus aureus, ATCC43300, read-out: Minimum inhibitory concentration (MIC)
Description: (§1) MIC of DART molecules were determined by micro broth dilution as per CLSI guidelines. Bacterial strains were cultured in Brain Heart Infusion Agar (BHIA) at 37° C. for 24 h. For MIC determination, BHI broth (100 μl) was added to each of the wells of a 96 well plate. 100 μl of broth containing drug was added to the first well (1A to 1H) and thereafter serial (double) dilutions were carried out for up to 10 wells (column 1 to column 10 of the 96 well plate). Bacterial inoculum was prepared by adjusting the bacterial culture turbidity to 0.5 McFarland standard (approximately 1.5×10^8 cells/ml) and further diluted (100 times with sterile BHI broth). Diluted bacterial suspension (100 μl) was added to each well except sterility control wells (column 12 of 96 well plate). The plates were incubated at 37° C. for 24 h. The MIC of the test compound was measured after addition of Alamar blue dye.

S. epidermidis S12-1 = conditions: for MIC: Staphylococcus epidermidis, S121, read-out: Minimum inhibitory concentration (MIC)
Description: as §1

S. aureus CCARM 3505 = conditions: for MIC: Staphylococcus aureus, CCARM3505, read-out: Minimum inhibitory concentration (MIC)
Description: as §1

E. faecium NCIM 5421 = conditions: for MIC: Enterococcus faecium, NCIM5421, read-out: Minimum inhibitory concentration (MIC)
Description: as §1

S. aureus MTCC 6908 = conditions: for MIC: Staphylococcus aureus, MTCC6908, read-out: Minimum inhibitory concentration (MIC)
Description: as §1

[1] = system: S. epidermidis ATCC 35984; conditions: for MIC: Staphylococcus epidermidis, ATCC35984, read-out: Minimum inhibitory concentration (MIC)
Description: as §1

E. coli MTCC 1687 = conditions: Escherichia coli, MTCC1687, read-out: Minimum inhibitory concentration (MIC)
Description: as §1

E. coli BAA 196 = conditions: Escherichia coli, BAA196, read-out: Minimum inhibitory concentration (MIC)
Description: as §1

SMILES | MIC (S. aureus ATCC 43300) [µg/mL] | MIC (S. epidermidis S12-1) [µg/mL] | MIC (S. aureus CCARM 3505) [µg/mL] | MIC (E. faecium NCIM 5421) [µg/mL] | MIC (S. aureus MTCC 6908) [µg/mL] | MIC [1] [µg/mL] | MIC (E. coli MTCC 1687) [µg/mL] | MIC (E. coli BAA 196) [µg/mL] | Minimum inhibitory concentration (MIC) (S. aureus ATCC 43300) | Minimum inhibitory concentration (MIC) (S. epidermidis S12-1) [µg/mL] | Minimum inhibitory concentration (MIC) (S. aureus CCARM 3505) [µg/mL] | Minimum inhibitory concentration (MIC) (E. faecium NCIM 5421) [µg/mL] | Minimum inhibitory concentration (MIC) (S. aureus MTCC 6908) [µg/mL] | Minimum inhibitory concentration (MIC) [1] [µg/mL]
CC(=O)NC[C@H]1CN(c2ccc(N3CCN(C(=O)c4c[nH]c5ccc([N+](=O)[O-])cc45)CC3)c(F)c2)C(=O)O1 [Compound 75, (S)—N-((3-(3-fluoro-4-(4-(5-nitro-1H-indole-3-carbonyl)piperazin-1-yl)phenyl)-2-oxooxazolidin-5-yl)methyl)acetamide] | 16 (≈ 30.5 µM) | > 16 | > 16 | > 16 | 4 (≈ 7.63 µM) | > 16 | – | – | – | – | – | – | – | –
CC1Sc2c(C(=O)O)c(=O)c3cc(F)c(N4CCN(C(=O)CNC(=N)N)CC4)cc3n21 (centres unmarked) [Compound 43, 7-(4-(Carbamimidoylglycyl)piperazin-1-yl)-6-fluoro-1-methyl-4-oxo-1H,4H-[1,3]thiazeto[3,2-a]quinoline-3-carboxylic acid] | 8 (≈ 17.8 µM) | > 16 | > 16 | > 16 | 8 (≈ 17.8 µM) | > 16 | 0.25 (≈ 0.557 µM) | > 16 | – | – | – | – | – | –
CC(=O)NC[C@H]1CN(c2ccc(N3CCN(C(=O)CNC(=O)c4cccc[n+]4[O-])CC3)c(F)c2)C(=O)N1 [Compound 80, (S)-2-((2-(4-(4-(4-(Acetamidomethyl)-2-oxoimidazolidin-1-yl)-2-fluorophenyl)piperazin-1-yl)-2-oxoethyl)carbamoyl)pyridine 1-oxide] | 16 (≈ 31.2 µM) | > 16 | > 16 | > 16 | 16 (≈ 31.2 µM) | > 16 | – | – | – | – | – | – | – | –
CC(=O)NC[C@H]1CN(c2ccc(N3CCN(C(=O)c4csc(N)n4)CC3)c(F)c2)C(=O)O1 [Compound 57, (S)—N-((3-(4-(4-(2-aminothiazole-4-carbonyl)piperazin-1-yl)-3-fluorophenyl)-2-oxooxazolidin-5-yl)methyl)acetamide] | 16 (≈ 34.6 µM) | > 16 | > 16 | > 16 | 8 (≈ 17.3 µM) | > 16 | – | – | – | – | – | – | – | –
CC1Sc2c(C(=O)O)c(=O)c3cc(F)c(N4CCN(CC(=O)NC(=O)Nc5ccccc5)CC4)cc3n21 (centres unmarked) [Compound 112, 6-Fluoro-1-methyl-4-oxo-7-(4-(2-oxo-2-(3-phenylureido)ethyl)piperazin-1-yl)-1H,4H-[1,3]thiazeto-[3,2-a]quinoline-3-carboxylic acid] | 0.13 (≈ 0.247 µM) | 8 (≈ 15.2 µM) | > 16 | > 16 | 0.25 (≈ 0.476 µM) | 0.13 (≈ 0.247 µM) | 1 (≈ 1.9 µM) | – | – | – | – | – | – | –
CC(=O)NC[C@H]1CN(c2ccc(N3CCN(Cc4nc5ccc([N+](=O)[O-])cc5[nH]4)CC3)c(F)c2)C(=O)O1 [Compound 65, (S)—N-((3-(3-Fluoro-4-(4-((6-nitro-1H-benzo[d]imidazol-2-yl)methyl)piperazin-1-yl)phenyl)-2-oxooxazolidin-5-yl)methyl)acetamide] | > 16 | > 16 | > 16 | > 16 | 16 (≈ 31.3 µM) | 16 (≈ 31.3 µM) | – | – | – | – | – | – | – | –
CC(=O)NC[C@H]1CN(c2ccc(N3CCN(C(=O)NC(=N)N)CC3)c(F)c2)C(=O)O1 [Compound 84, (S)-4-(4-(5-(Acetamidomethyl)-2-oxooxazolidin-3-yl)-2-fluorophenyl)-N-carbamimidoylpiperazine-1-carboxamide] | > 16 | 8 (≈ 19 µM) | > 16 | > 16 | > 16 | 16 (≈ 38 µM) | – | – | – | – | – | – | – | –
CC(=O)NC[C@H]1CN(c2ccc(N3CCN(Cc4nc5cc(Cl)c(Cl)cc5[nH]4)CC3)c(F)c2)C(=O)O1 [Compound 66, (S)—N-((3-(4-(4-((5,6-Dichloro-1H-benzo[d]imidazol-2-yl)methyl)piperazin-1-yl)-3-fluorophenyl)-2-oxooxazolidin-5-yl)methyl)acetamide] | – | > 16 | > 16 | > 16 | 8 (≈ 14.9 µM) | 8 (≈ 14.9 µM) | – | – | 8/16 | – | – | – | – | –
CC(=O)NC[C@H]1CN(c2ccc(N3CCN(C(=O)c4cccc(Br)n4)CC3)c(F)c2)C(=O)O1 [Compound 76, (S)—N-((3-(4-(4-(6-Bromopicolinoyl)piperazin-1-yl)-3-fluorophenyl)-2-oxooxazolidin-5-yl)methyl)acetamide] | 8 (≈ 15.4 µM) | 4 (≈ 7.69 µM) | 8 (≈ 15.4 µM) | > 16 | 4 (≈ 7.69 µM) | 2 (≈ 3.84 µM) | – | – | – | – | – | – | – | –
CC(=O)NC[C@H]1CN(c2ccc(N3CCN(CC(=O)Nc4ccc5nc(N)[nH]c5c4)CC3)c(F)c2)C(=O)O1 [Compound 68, (S)-2-(4-(4-(5-(acetamidomethyl)-2-oxooxazolidin-3-yl)-2-fluorophenyl)piperazin-1-yl)-N-(2-amino-1H-benzo[d]imidazol-6-yl)acetamide] | > 64 | > 16 | > 16 | > 16 | 16 (≈ 30.5 µM) | > 16 | – | – | – | – | – | – | – | –
CC(=O)NC[C@H]1CN(c2ccc(N3CCN(C(=O)c4ccccn4)CC3)c(F)c2)C(=O)O1 [Compound 77, (S)—N-((3-(3-fluoro-4-(4-picolinoylpiperazin-1-yl)phenyl)-2-oxooxazolidin-5-yl)methyl)acetamide] | 8 (≈ 18.1 µM) | 4 (≈ 9.06 µM) | 8 (≈ 18.1 µM) | 0.5 (≈ 1.13 µM) | 4 (≈ 9.06 µM) | 4 (≈ 9.06 µM) | – | – | – | – | – | – | – | –
CC(=O)NC[C@H]1CN(c2ccc(N3CCN(C(=O)c4csc(NC(=N)N)n4)CC3)c(F)c2)C(=O)O1 [Compound 58, (S)—N-((3-(3-fluoro-4-(4-(2-guanidinothiazole-4-carbonyl)piperazin-1-yl)phenyl)-2-oxooxazolidin-5-yl)methyl)acetamide] | > 16 | > 16 | > 16 | > 16 | > 16 | > 16 | – | – | – | – | – | – | – | –
CC1Sc2c(C(=O)O)c(=O)c3cc(F)c(N4CCN(C(=O)c5cccc[n+]5[O-])CC4)cc3n21 (centres unmarked) [Compound 34, 2-(4-(3-Carboxy-6-fluoro-1-methyl-4-oxo-1H,4H-[1,3]thiazeto[3,2-a]quinolin-7-yl)piperazine-1-carbonyl)pyridine-1-oxide] | 0.13 (≈ 0.276 µM) | 8 (≈ 17 µM) | 8 (≈ 17 µM) | 1 (≈ 2.13 µM) | 4 (≈ 8.5 µM) | 0.13 (≈ 0.276 µM) | > 16 | > 16 | – | – | – | – | – | –
CC1Sc2c(C(=O)O)c(=O)c3cc(F)c(N4CCN(C(=O)CNC(=O)c5cccc[n+]5[O-])CC4)cc3n21 (centres unmarked) [Compound 111, 2-((2-(4-(3-carboxy-6-fluoro-1-methyl-4-oxo-1H,4H-[1,3]thiazeto[3,2-a]quinolin-7-yl)piperazin-1-yl)-2-oxoethyl)carbamoyl)pyridine 1-oxide] | 16 (≈ 30.3 µM) | > 16 | > 16 | > 16 | > 16 | > 16 | – | – | – | – | – | – | – | –
CC(=O)NC[C@H]1CN(c2ccc(N3CCN(C(=O)c4coc(N)n4)CC3)c(F)c2)C(=O)O1 [Compound 110, (S)—N-(3-{4-[4-(2-amino-oxazole-4-carbonyl)-piperazin-1-yl]-3-fluoro-phenyl}-2-oxo-oxazolidin-5-ylmethyl)-acetamide] | > 16 | > 16 | > 16 | > 16 | > 16 | > 16 | – | – | – | – | – | – | – | –
CC(=O)NC[C@H]1CN(c2ccc(N3CCN(C(=O)c4cccc[n+]4[O-])CC3)c(F)c2)C(=O)O1 [Compound 78, (S)-2-(4-(4-(5-(acetamidomethyl)-2-oxooxazolidin-3-yl)-2-fluorophenyl)piperazine-1-carbonyl)-pyridine 1-oxide] | 16 (≈ 35 µM) | 8 (≈ 17.5 µM) | > 16 | > 16 | 8 (≈ 17.5 µM) | 8 (≈ 17.5 µM) | – | – | – | – | – | – | – | –
CCNC(=O)N1CCN(c2cc3c(cc2F)c(=O)c(C(=O)O)c2n3C(C)S2)CC1 (centres unmarked) [Compound 48, 7-(4-(Ethylcarbamoyl)piperazin-1-yl)-6-fluoro-1-methyl-4-oxo-1H,4H-[1,3]thiazeto[3,2-a]quinoline-3-carboxylic acid] | 1 (≈ 2.38 µM) | > 16 | > 16 | > 16 | 2 (≈ 4.76 µM) | 0.5 (≈ 1.19 µM) | – | – | – | – | – | – | – | –
CCCCCCCCCCC[CH2][SnH2][CH2][C@@H](NC(C)=O)C(=O)N1CCN(c2ccc(N3CC(CNC(C)=O)OC3=O)cc2F)CC1 (stereo partly drawn) [Compound 108, (S)—N-[2-(4-{4-[5-(Acetylamino-methyl)-2-oxo-oxazolidin-3-yl]-2-fluoro-phenyl}-piperazin-1-yl)-1-dodecylstannanylmethyl-2-oxo-ethyl]-acetamide] | – | – | – | – | – | – | – | – | >16 µg/mL | >16 | >16 | >16 | >16 | >16
